Earlier results, collected in US20220296868A1, “INTRACRANIAL DELIVERY OF MEDICINAL SOLUTION” (InCube Labs, LLC, priority 2019, published 2022).

How the values were obtained:
[1] = in vitro, human liver microsomes
[2] = hydrochloride salt of topotecan
white blood cell count = details: in vivo
[3] = not given; remark: listed apart in the source

lactone form (pH≤4): exclusively present
ring-opened hydroxy-acid form (physiologic pH): predominates
solubility in water [2]: freely soluble
binding to plasma proteins (plasma proteins): about 35%
mean metabolite:parent AUC ratio ([3]; N-demethylated metabolite, total topotecan and topotecan lactone, following IV administration): about 3%
total exposure (AUC) versus dose ([3]; cancer subjects, 0.5 to 1.5 mg/m^2 as 30-minute IV infusion): approximately dose-proportional
SMILES: CC[C@@]1(O)C(=O)OCc2c1cc1n(c2=O)Cc2cc3c(CN(C)C)c(O)ccc3nc2-1 [topotecan]
metabolism [1]: metabolized to an Ndemethylated metabolite
dose-limiting toxicity (white blood cell count): leukopenia
